# Results reported in ChEMBL document CHEMBL3621147, “An azumamide C analogue without the zinc-binding functionality” (Medchemcomm, 2014).
# Activity calls are given as the source filed them. The calls are words filed in the database; no cut-off is given here.
# Tests used:
# Histone deacetylase 1 = Histone deacetylase 1 (Homo sapiens, UniProt Q13547); test: Inhibition of human recombinant HDAC1 using Ac-Leu-Gly-Lys (Ac)-AMC substrate incubated for 30 mins by fluorescence assay
# Histone deacetylase 2 = Histone deacetylase 2 (Homo sapiens, UniProt Q92769); test: Inhibition of human recombinant HDAC2 using Ac-Leu-Gly-Lys (Ac)-AMC substrate incubated for 30 mins by fluorescence assay
# Sequence of Histone deacetylase 2 (Q92769 whole entry): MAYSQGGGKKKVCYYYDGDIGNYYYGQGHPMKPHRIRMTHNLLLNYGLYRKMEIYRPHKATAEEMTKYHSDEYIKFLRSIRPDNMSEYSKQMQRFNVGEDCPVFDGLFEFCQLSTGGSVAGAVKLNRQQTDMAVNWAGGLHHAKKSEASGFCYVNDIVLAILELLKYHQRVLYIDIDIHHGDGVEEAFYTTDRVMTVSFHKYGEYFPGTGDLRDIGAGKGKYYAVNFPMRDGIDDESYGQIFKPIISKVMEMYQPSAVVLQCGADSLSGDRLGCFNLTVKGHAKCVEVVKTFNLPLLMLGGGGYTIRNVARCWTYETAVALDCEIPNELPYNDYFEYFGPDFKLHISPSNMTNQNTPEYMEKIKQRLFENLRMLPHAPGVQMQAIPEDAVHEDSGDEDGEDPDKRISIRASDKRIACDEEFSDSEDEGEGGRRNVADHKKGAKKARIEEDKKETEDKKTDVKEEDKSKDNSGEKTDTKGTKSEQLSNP
# [1] = molecular target: T1, Histone deacetylase 3/Nuclear receptor corepressor 2 (HDAC3/NCoR2) (Homo sapiens, UniProt O15379); test: Inhibition of human recombinant HDAC3/NCoR2 using Ac-Leu-Gly-Lys (Ac)-AMC substrate incubated for 30 mins by fluorescence assay; type: protein-complex assay
# T1 sequence (O15379 whole entry): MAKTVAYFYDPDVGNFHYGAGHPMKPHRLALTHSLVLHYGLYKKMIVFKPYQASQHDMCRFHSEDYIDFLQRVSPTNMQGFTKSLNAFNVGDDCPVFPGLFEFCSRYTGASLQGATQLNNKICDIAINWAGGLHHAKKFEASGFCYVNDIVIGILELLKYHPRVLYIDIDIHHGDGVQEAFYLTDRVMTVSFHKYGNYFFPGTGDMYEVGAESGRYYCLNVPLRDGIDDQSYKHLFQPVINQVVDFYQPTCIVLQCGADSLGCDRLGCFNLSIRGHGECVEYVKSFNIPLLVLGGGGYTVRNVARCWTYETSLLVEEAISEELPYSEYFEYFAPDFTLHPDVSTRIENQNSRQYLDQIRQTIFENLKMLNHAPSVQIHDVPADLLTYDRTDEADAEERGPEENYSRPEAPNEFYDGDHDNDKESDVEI
# T1 sequence (Q9Y618 whole entry, further chain): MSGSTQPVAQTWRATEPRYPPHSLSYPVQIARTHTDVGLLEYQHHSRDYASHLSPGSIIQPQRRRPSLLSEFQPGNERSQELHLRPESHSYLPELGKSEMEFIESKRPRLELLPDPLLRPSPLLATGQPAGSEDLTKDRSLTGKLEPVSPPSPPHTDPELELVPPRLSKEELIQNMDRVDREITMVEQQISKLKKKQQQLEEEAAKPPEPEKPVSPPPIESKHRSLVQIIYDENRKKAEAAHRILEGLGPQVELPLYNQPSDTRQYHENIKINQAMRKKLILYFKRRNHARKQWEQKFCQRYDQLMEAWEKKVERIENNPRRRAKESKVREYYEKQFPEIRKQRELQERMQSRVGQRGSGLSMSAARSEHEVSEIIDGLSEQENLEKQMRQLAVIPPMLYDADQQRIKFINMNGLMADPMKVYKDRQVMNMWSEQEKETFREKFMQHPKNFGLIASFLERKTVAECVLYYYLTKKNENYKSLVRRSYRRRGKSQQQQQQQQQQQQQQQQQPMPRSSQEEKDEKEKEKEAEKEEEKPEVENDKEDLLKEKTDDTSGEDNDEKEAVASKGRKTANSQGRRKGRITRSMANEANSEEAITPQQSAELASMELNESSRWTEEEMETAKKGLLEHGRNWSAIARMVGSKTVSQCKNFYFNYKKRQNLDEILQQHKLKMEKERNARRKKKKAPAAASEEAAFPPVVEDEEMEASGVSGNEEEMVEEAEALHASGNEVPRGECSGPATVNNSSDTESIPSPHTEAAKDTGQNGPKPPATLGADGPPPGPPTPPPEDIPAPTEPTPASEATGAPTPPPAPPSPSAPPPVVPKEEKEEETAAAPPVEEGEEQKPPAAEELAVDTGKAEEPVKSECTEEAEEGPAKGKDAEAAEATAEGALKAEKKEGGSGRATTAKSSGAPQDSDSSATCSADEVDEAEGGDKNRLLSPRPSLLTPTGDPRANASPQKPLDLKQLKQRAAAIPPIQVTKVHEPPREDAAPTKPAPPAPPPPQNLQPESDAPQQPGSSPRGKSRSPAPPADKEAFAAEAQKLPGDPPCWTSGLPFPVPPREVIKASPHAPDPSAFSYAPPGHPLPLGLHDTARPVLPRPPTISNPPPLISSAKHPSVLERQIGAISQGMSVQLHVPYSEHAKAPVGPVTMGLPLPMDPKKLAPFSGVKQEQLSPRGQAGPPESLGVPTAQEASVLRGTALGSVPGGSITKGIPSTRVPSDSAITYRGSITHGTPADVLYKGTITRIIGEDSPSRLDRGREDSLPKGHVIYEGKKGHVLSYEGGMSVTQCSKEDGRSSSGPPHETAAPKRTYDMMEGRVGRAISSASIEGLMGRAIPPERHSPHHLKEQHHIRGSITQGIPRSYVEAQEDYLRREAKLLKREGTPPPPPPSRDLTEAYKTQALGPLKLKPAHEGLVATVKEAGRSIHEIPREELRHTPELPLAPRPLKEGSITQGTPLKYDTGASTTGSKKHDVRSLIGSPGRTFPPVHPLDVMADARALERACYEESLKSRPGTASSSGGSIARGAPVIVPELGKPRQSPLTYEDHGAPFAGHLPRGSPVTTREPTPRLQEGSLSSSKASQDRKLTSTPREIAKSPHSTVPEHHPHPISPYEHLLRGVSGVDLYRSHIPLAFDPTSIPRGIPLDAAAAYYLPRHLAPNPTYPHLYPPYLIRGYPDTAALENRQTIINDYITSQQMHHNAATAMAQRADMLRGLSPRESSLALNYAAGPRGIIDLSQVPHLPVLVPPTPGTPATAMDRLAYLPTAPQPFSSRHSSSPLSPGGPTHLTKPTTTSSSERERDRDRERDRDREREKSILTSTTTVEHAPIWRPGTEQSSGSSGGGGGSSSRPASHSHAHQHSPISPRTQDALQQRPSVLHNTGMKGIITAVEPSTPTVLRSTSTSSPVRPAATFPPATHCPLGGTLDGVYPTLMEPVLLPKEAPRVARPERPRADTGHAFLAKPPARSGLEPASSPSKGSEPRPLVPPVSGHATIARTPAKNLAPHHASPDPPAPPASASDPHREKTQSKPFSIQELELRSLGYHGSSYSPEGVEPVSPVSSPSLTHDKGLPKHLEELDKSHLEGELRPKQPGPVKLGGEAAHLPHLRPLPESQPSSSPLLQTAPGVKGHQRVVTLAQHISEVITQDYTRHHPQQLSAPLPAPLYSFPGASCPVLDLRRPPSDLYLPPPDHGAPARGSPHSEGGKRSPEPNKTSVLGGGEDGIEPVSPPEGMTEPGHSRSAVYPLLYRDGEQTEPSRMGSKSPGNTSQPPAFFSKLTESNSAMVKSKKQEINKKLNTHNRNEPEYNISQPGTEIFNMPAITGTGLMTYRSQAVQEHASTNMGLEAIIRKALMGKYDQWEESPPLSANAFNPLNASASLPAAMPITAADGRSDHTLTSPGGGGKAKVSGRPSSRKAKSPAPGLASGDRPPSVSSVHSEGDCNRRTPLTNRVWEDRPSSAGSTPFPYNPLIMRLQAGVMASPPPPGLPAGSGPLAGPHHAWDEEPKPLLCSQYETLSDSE
# [2] = molecular target: T2, Polyamine deacetylase HDAC10 (Homo sapiens, UniProt Q969S8); test: Inhibition of human recombinant HDAC10 using Ac-Arg-His-Lys (Ac)-Lys (Ac)-AMC substrate incubated for 30 mins by fluorescence assay
# T2 sequence (Q969S8 whole entry): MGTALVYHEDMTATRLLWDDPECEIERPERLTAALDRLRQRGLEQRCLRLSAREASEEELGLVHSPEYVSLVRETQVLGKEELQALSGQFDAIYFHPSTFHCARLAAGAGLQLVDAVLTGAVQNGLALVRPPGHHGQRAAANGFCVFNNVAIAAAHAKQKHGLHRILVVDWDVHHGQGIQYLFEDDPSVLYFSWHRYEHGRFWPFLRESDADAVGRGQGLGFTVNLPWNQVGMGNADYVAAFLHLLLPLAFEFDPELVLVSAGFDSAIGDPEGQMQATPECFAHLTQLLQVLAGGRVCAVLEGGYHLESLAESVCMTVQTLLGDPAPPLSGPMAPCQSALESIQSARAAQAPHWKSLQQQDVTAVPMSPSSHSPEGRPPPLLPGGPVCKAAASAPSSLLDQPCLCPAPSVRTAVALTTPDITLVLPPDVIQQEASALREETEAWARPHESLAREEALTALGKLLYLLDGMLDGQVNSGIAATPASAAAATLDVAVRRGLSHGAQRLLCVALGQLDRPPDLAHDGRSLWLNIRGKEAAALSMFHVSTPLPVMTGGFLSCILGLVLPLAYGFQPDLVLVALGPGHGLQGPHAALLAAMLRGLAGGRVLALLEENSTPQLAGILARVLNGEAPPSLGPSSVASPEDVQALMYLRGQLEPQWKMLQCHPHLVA
# Histone deacetylase 11 = molecular target: T3, Histone deacetylase 11 (Homo sapiens, UniProt Q96DB2); test: Inhibition of human recombinant HDAC11 using Ac-Leu-Gly-Lys (Ac)-AMC substrate incubated for 30 mins by fluorescence assay
# T3 sequence (Q96DB2 whole entry): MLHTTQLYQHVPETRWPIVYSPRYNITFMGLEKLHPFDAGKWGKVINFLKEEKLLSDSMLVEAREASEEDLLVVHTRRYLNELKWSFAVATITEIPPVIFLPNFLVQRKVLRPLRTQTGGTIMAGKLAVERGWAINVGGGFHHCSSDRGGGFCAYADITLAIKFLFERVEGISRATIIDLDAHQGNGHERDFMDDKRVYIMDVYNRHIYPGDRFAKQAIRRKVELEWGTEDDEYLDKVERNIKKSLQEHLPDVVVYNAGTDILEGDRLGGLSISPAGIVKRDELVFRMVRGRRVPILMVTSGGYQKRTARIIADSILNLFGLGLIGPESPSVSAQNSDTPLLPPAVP
# [3] = molecular target: T4, Histone deacetylase 8 (Homo sapiens) (UniProt Q9BY41); test: Inhibition of human recombinant HDAC8 using Ac-Leu-Gly-Lys (Tfa)-AMC substrate incubated for 30 mins by fluorescence assay
# T4 sequence (whole entry): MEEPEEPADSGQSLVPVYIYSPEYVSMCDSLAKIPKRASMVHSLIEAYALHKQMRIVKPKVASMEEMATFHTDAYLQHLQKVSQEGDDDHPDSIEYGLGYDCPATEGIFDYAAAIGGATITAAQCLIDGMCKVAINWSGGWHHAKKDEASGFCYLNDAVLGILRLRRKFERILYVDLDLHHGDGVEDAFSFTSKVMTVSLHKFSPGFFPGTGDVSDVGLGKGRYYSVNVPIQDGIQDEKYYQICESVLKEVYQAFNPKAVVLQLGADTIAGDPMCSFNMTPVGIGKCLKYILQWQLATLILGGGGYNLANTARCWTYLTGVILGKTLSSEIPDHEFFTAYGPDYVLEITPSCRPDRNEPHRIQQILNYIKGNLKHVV
# [4] = molecular target: Histone deacetylase 4 (Homo sapiens) (UniProt P56524); test: Inhibition of human recombinant HDAC4 using Ac-Leu-Gly-Lys (Tfa)-AMC substrate incubated for 30 mins by fluorescence assay
# Sequence of Histone deacetylase 4 (Homo sapiens) (P56524 whole entry): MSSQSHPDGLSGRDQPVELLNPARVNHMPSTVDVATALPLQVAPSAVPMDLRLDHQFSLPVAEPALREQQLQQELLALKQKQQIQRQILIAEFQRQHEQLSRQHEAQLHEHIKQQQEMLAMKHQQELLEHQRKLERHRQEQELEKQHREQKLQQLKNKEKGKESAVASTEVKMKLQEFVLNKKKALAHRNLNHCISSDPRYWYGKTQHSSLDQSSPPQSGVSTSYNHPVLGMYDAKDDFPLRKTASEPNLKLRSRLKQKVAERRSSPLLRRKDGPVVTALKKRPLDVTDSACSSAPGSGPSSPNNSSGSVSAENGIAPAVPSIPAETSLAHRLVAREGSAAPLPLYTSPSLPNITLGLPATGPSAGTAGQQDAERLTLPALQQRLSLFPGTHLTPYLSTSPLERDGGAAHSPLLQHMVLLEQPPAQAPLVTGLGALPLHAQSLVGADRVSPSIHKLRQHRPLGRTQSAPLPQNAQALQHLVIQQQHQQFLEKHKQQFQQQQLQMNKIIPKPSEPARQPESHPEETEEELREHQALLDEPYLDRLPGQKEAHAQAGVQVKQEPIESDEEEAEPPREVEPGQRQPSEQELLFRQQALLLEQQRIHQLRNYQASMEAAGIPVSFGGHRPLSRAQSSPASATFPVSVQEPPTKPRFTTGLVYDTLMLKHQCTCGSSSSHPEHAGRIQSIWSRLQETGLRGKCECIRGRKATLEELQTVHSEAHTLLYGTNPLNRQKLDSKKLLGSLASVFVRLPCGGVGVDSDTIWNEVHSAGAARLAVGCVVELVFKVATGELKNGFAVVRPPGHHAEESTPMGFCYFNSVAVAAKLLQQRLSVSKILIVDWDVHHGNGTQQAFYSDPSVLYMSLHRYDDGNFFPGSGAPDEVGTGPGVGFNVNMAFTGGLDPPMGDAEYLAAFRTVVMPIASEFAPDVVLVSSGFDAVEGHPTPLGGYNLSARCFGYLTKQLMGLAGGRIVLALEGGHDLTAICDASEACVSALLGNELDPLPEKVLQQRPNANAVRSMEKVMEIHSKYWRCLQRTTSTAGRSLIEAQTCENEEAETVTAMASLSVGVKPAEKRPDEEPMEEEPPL
# [5] = molecular target: Histone deacetylase 5 (Homo sapiens) (UniProt Q9UQL6); test: Inhibition of human recombinant HDAC5 using Ac-Leu-Gly-Lys (Tfa)-AMC substrate incubated for 30 mins by fluorescence assay
# [6] = molecular target: T5, Histone deacetylase 7 (Homo sapiens) (UniProt Q8WUI4); test: Inhibition of human recombinant HDAC7 using Ac-Leu-Gly-Lys (Tfa)-AMC substrate incubated for 30 mins by fluorescence assay
# T5 sequence (whole entry): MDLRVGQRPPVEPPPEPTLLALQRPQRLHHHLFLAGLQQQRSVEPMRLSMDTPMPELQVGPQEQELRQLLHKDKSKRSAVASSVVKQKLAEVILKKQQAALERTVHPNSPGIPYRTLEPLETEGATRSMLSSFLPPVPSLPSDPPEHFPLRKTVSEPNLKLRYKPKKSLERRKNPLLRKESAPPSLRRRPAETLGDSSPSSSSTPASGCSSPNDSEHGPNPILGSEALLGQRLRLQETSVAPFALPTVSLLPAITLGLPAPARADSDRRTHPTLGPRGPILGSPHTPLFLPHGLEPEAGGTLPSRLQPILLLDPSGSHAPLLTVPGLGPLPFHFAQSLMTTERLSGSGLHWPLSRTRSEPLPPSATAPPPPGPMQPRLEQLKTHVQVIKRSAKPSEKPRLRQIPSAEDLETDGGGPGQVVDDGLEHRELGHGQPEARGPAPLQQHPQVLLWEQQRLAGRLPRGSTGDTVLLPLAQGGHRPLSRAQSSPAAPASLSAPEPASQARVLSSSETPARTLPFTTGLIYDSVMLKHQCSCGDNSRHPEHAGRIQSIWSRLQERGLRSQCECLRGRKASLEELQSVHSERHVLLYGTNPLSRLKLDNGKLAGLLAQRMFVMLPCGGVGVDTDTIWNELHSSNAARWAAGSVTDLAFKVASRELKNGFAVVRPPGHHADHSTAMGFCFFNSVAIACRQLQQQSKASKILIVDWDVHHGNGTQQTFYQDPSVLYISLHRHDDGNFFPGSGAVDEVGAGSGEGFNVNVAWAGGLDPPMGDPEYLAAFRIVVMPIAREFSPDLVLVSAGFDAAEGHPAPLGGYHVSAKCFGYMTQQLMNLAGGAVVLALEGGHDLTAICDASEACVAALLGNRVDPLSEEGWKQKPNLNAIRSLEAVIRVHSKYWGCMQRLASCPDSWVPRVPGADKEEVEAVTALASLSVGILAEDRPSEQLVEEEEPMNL
# [7] = molecular target: Histone deacetylase 9 (Homo sapiens) (UniProt Q9UKV0); test: Inhibition of human recombinant HDAC9 using Ac-Leu-Gly-Lys (Tfa)-AMC substrate incubated for 30 mins by fluorescence assay
# [8] = molecular target: T6, Protein deacetylase HDAC6 (Homo sapiens) (UniProt Q9UBN7); test: Inhibition of human recombinant HDAC6 using Ac-Leu-Gly-Lys (Ac)-AMC substrate incubated for 30 mins by fluorescence assay
# T6 sequence (whole entry): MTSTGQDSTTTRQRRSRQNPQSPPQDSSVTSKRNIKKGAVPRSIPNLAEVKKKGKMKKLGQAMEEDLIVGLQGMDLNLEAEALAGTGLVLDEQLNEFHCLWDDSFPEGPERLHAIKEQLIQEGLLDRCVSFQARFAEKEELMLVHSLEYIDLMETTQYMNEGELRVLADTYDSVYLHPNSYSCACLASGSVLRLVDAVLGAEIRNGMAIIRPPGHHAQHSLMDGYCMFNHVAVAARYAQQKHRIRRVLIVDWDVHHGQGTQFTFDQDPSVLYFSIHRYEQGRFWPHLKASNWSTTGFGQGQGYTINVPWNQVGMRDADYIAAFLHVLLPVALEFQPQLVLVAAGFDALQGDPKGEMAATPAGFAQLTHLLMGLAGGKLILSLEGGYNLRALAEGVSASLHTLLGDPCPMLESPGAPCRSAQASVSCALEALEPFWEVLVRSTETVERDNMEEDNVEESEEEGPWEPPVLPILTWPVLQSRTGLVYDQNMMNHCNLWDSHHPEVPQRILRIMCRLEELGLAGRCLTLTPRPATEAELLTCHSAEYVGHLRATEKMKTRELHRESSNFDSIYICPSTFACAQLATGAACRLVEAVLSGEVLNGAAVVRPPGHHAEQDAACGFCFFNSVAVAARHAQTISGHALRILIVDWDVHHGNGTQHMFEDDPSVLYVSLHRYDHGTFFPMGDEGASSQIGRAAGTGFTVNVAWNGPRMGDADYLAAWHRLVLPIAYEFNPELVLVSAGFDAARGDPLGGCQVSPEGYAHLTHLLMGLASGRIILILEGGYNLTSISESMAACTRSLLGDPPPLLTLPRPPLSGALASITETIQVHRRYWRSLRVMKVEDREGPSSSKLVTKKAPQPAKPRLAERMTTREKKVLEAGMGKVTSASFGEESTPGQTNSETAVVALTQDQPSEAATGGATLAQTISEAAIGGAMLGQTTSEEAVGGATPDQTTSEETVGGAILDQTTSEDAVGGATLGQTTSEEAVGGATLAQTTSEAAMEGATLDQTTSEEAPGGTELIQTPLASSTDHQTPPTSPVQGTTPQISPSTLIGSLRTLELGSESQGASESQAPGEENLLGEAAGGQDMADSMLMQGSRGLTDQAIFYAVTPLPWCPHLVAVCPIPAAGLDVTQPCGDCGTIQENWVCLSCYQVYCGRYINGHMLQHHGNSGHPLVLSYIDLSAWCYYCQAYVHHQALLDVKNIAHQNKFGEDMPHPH
# [9] = molecular target: T1, Histone deacetylase 3/Nuclear receptor corepressor 2 (HDAC3/NCoR2); test: Inhibition of human recombinant HDAC3/NCoR2 using Ac-Leu-Gly-Lys (Ac)-AMC substrate incubated for 45 mins by fluorescence assay based continuous assay protocol; type: protein-complex assay
# [10] = Antiproliferative activity against human EB3 cells assessed as growth inhibition incubated for 3 days by MTT assay; type: functional; details: EB-3, 72 h
# EB-3 = details: Homo sapiens, at 10 µM
# Description: Antiproliferative activity against human EB3 cells at 10 uM incubated for 3 days by MTT assay
# Sequence of Histone deacetylase 1 (Q13547 whole entry): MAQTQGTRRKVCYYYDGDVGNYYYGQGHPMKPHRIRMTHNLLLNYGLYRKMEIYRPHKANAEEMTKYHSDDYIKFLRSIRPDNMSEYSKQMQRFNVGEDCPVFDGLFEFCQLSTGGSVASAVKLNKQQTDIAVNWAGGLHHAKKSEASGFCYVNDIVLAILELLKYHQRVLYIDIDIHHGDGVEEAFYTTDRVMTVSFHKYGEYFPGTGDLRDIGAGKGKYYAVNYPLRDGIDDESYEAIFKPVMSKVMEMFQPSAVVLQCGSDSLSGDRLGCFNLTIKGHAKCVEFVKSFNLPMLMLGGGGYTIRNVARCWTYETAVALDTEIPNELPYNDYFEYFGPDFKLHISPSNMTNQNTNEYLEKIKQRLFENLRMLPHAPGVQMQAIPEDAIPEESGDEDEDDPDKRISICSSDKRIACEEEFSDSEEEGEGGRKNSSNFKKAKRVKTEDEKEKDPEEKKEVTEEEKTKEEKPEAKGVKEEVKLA
compound,measurement,setting,value
CCC[C@H]1NC(=O)[C@@H](Cc2ccc(O)cc2)NC(=O)[C@@H](C)NC(=O)[C@@H](C(C)C)NC(=O)[C@H]1C,Ki,Histone deacetylase 1,2.4 µM
same,Ki,Histone deacetylase 2,1.4 µM
same,Ki,[1],3 µM
same,Ki,[2],4 µM
same,Ki,Histone deacetylase 11,6 µM
same,inhibition,[3],inactive
same,inhibition,[4],inactive
same,inhibition,[5],inactive
same,inhibition,[6],inactive
same,inhibition,[7],inactive
same,inhibition,[8],inactive
same,Ki,[9],0.78 µM
same,GI50,[10],> 50 µM
same,inhibition,EB-3,inactive
CC(C)[C@H]1NC(=O)[C@@H](C)[C@@H](C/C=C\CCC(=O)O)NC(=O)[C@@H](Cc2ccc(O)cc2)NC(=O)[C@@H](C)NC1=O [AZUMAMIDE C],Ki,Histone deacetylase 1,0.02 µM
same,Ki,Histone deacetylase 2,0.01 µM
same,Ki,[1],0.018 µM
same,Ki,[2],0.02 µM
same,Ki,Histone deacetylase 11,0.06 µM
same,Ki,[9],0.00967 µM
same,GI50,[10],> 25 µM
same,inhibition,EB-3,inactive
CC(C)[C@H]1NC(=O)[C@@H](C)[C@@H](C/C=C\CCC(N)=O)NC(=O)[C@@H](Cc2ccc(O)cc2)NC(=O)[C@@H](C)NC1=O [AZUMAMIDE B],GI50,[10],> 50 µM
same,inhibition,EB-3,inactive
CCC(=O)CCCCC[C@@H]1NC(=O)[C@H]2CCCCN2C(=O)[C@H]([C@@H](C)CC)NC(=O)[C@H](Cc2cn(OC)c3ccccc23)NC1=O [APICIDIN],GI50,[10],0.8 µM
same,inhibition,EB-3,Active
